From ChEMBL document CHEMBL1201862, “PubChem BioAssay data set” (2004)
The source made the active and inactive calls.

How the values were obtained:
[1] = Luminescence Cell-Based Dose Confirmation HTS to Identify Inhibitors of Platelet Dense Granule Release. [Related pubchem assays: 1663 (Primary HTS), 1678 (Summary of Project)]; type: functional
[2] = inhibitors of SNCA 5'UTR-driven reporter translation, confirmation, H4 neuroglioma cells, luminescence (AID 1988); type: functional, cell-based
[3] = inhibitors of firefly luciferase expression or activity, dose response, H4 neuroglioma cells, luminescence (AID 1990); type: functional, cell-based
[4] = biological target: Luciferin 4-monooxygenase (Photinus pyralis, UniProt P08659); assay: firefly luciferase enzyme inhibitors, dose response, biochemical, luminescence (AID 1891)
Luciferin 4-monooxygenase, sequence (P08659 whole entry): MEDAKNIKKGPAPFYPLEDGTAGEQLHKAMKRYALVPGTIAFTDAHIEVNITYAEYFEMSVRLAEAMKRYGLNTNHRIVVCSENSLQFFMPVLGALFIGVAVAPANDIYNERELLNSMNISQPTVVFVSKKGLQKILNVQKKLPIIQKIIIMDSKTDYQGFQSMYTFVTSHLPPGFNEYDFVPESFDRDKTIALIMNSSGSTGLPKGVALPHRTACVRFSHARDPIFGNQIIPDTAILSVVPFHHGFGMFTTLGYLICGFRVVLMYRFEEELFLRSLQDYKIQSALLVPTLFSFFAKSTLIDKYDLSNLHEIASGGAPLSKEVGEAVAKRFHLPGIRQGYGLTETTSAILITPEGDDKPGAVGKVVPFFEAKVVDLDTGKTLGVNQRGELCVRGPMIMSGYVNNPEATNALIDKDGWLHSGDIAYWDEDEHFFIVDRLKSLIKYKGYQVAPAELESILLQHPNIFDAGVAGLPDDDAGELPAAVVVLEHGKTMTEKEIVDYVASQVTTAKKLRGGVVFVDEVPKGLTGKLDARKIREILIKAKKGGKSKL

[5] = Fluorescence Cell-Based Dose Response to Identify Inhibitors of Thrombin Receptor-Activating Peptide SFLLRN-Mediated P-Selectin Induction on Platelets. [Related pubchem assays: 1663 (Primary HTS), 1889 (retest at dose ), 1891 (counterscreen), 1678 (Project Summary)]; type: functional
[6] = Luminescence Cell-Based Dose Response HTS to Identify Inhibitors of 5'UTR Stem-Loop Driven Prion Protein mRNA Translation in H4 Neuroglioblastoma Cells. [Related pubchem assays: 1827 (Project Summary), 1813 (Primary HTS)]; type: functional
[7] = biological target: Serine/threonine-protein phosphatase (Homo sapiens, UniProt Q9BPW0); assay: PP5 phosphatase inhibitors, dose response, biochemical, fluorescence (AID 2395)
Serine/threonine-protein phosphatase, sequence (Q9BPW0 whole entry): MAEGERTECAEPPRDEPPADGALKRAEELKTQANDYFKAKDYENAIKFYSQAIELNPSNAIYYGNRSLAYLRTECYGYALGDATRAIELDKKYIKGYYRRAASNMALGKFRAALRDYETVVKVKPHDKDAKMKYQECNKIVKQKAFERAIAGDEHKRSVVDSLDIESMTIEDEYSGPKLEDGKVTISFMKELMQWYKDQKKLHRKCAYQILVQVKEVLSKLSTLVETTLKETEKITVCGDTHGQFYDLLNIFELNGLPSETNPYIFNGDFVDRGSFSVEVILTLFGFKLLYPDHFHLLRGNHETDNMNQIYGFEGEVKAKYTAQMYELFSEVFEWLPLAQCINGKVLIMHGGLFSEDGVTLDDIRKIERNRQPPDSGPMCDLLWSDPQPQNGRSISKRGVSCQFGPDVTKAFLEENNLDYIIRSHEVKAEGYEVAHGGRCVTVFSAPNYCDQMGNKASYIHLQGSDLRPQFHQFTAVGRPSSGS

[8] = biological target: Serine/threonine-protein phosphatase PP1-alpha catalytic subunit (Homo sapiens, UniProt P62136); assay: PP1 phosphatase inhibitors, dose response, biochemical, fluorescence (AID 2394)
Serine/threonine-protein phosphatase PP1-alpha catalytic subunit, sequence (P62136 whole entry): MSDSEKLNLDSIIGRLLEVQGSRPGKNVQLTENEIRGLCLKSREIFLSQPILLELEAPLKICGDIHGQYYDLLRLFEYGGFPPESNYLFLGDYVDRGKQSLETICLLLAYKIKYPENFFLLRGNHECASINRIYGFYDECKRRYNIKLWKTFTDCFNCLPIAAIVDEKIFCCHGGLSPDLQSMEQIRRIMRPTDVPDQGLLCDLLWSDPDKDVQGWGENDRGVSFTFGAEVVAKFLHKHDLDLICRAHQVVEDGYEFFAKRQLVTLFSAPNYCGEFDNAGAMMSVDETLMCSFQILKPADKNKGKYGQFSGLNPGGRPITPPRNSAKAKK

[9] = system: Vero; assay: cells; type: functional, cell-based; details: Chlorocebus sabaeus
[10] = system: Vero; assay: cells; type: functional; details: Chlorocebus sabaeus
[11] = system: Vero; assay: West Nile virus antiviral activity, cell-based, CPE readout (AID 1621); type: functional; details: Chlorocebus sabaeus
[12] = biological target: Galanin receptor type 2 (Homo sapiens, UniProt O43603); assay: Dose Response cell-based high-throughput screening assay to identify antagonists of galanin receptor 2 (GALR2). [Related pubchem assays: 828, 866 ]; type: functional
Galanin receptor type 2, sequence (O43603 whole entry): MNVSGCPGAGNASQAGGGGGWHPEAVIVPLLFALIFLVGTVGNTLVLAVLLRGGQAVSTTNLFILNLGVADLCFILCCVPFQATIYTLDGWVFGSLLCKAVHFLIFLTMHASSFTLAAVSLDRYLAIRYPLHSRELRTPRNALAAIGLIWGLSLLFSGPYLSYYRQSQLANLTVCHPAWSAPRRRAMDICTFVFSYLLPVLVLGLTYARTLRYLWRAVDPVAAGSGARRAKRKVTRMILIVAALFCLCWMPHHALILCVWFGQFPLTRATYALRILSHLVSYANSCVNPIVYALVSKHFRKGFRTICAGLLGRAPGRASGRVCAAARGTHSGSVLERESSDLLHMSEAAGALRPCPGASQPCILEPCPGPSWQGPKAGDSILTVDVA

[13] = biological target: Aryl hydrocarbon receptor (Homo sapiens, UniProt P35869); assay: Luminescence-based cell-based high throughput dose response assay for activators of the Aryl Hydrocarbon Receptor (AHR). [Related pubchem assays: 2796 (Primary screen (AHR activators in singlicate)), 2845 (Confirmation screen (AHR activators in triplicate)), 434939 (Counterscreen (PXR activators in triplicate)), 2804 (Summary (AHR activators))]; type: ADME
Aryl hydrocarbon receptor, sequence (P35869 whole entry): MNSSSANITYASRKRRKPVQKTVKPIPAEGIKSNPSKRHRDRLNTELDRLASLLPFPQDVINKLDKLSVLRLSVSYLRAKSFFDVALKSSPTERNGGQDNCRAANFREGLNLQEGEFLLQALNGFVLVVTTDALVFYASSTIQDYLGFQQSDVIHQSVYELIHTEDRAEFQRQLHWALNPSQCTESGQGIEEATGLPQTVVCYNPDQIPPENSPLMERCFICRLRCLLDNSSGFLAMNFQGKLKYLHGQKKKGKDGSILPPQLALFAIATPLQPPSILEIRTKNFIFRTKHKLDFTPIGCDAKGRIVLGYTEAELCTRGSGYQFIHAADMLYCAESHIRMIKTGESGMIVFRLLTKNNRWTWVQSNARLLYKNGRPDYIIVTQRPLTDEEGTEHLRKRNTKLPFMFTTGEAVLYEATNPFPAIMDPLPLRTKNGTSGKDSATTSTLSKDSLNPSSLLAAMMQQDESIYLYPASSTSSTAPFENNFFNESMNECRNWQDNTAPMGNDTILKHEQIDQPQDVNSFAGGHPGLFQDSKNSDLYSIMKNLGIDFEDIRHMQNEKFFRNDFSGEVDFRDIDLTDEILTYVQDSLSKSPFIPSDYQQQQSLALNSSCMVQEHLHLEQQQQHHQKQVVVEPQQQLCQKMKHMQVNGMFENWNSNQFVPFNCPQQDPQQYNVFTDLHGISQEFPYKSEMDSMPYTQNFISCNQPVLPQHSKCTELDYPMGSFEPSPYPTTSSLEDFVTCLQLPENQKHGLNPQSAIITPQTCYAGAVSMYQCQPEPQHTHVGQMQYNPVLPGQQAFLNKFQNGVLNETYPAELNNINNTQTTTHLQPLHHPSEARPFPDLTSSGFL

[14] = biological target: Voltage-gated inwardly rectifying potassium channel KCNH2 (Homo sapiens, UniProt Q12809); assay: hERG protection from proarrhythmic block, potency, dose response, cell-based, thallium flux (AID 2121); type: ADME
Voltage-gated inwardly rectifying potassium channel KCNH2, sequence (Q12809 whole entry): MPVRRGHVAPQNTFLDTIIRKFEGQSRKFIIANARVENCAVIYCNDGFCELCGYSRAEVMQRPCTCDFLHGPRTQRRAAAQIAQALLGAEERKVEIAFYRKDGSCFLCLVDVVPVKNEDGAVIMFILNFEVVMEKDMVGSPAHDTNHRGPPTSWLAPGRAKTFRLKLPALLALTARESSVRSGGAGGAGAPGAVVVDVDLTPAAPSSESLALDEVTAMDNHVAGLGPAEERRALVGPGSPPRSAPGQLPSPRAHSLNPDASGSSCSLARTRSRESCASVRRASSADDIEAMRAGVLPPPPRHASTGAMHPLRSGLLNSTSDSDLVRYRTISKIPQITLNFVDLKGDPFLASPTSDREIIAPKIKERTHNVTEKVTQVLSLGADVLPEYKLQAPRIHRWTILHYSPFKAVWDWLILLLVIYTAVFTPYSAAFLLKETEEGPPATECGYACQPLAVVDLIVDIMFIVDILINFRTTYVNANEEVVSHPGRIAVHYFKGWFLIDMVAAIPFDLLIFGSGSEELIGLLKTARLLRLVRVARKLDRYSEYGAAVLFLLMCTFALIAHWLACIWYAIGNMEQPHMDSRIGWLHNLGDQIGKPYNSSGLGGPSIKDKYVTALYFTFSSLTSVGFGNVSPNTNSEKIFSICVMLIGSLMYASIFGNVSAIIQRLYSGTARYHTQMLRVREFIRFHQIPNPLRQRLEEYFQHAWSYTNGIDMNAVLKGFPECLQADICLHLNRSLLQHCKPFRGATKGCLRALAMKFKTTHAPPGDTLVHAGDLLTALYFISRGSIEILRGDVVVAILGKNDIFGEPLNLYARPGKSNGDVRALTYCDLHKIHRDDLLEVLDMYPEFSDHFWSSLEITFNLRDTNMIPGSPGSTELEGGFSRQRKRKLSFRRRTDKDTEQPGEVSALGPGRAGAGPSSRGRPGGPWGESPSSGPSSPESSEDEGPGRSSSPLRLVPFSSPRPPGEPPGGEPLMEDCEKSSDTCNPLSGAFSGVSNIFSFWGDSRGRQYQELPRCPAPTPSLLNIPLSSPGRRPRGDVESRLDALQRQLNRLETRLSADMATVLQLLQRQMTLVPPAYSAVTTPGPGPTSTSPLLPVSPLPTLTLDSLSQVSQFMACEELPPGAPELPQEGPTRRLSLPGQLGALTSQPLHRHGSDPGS

[15] = biological target: T1, Long-chain-fatty-acid--AMP ligase FadD28 (Mycobacterium tuberculosis, UniProt P9WQ59); assay: Fluorescence polarization aasay to screen for inhibitors that compete for the binding of FadD28 to a bisubstrate Measured in Biochemical System Using Plate Reader - 2147-01_Inhibitor_Dose_CherryPick_Activity.; type: functional, Mycobacterium tuberculosis H37Rv
T1 sequence (P9WQ59 whole entry): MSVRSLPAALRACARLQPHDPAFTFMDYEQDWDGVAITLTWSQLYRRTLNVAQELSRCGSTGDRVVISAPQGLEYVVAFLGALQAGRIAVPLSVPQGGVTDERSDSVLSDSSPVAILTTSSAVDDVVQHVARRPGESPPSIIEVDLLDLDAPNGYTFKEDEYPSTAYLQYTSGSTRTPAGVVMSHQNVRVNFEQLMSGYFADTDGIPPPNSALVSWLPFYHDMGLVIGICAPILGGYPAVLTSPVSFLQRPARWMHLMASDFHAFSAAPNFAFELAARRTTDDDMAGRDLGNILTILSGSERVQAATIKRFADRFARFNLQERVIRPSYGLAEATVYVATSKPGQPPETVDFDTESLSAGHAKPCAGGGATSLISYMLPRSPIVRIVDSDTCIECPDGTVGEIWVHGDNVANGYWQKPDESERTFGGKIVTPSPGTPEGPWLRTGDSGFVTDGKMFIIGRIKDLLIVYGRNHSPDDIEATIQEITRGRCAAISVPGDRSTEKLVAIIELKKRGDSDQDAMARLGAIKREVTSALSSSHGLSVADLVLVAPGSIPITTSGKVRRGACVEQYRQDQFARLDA

In the case of `COc1cc2c(cc1OC)-c1cc(Nc3ccccc3C)nc(=O)n1CC2`, the EC50 [1] is reported as 0.24 µM (active), the EC50 [2] is reported as 17.8 µM (active) and the EC50 [3] is reported as 15.6 µM (active). For the same compound, the EC50 [4] was > 112 µM (not active), the EC50 [5] was < 0.3 µM (active) and the EC50 [6] was 49.5 µM (active).

In the case of `O=C(O)c1[nH]nnc1-c1ccccc1`, the IC50 [7] is reported as 13 µM (not active) and the IC50 [8] is reported as > 67 µM (not active).

In the case of `Cc1ccc(S(=O)(=O)N(C)C)cc1NC(=O)c1cncc(Br)c1`, the IC50 [9] is reported as > 25 µM (active), the CC50 [10] is reported as > 25 µM (active) and the IC50 [11] is reported as 32 µM (active).

For `Cc1nnc(SCC(=O)Nc2cccc(S(=O)(=O)N(C)c3ccccc3)c2)s1`, the IC50 [12] was > 42 µM (not active).

For `COc1ccc(/C=N/NC(=O)c2cccc(NC(=O)c3ccc(F)cc3)c2)c(C(=O)O)c1OC`, the EC50 [13] was 5.48 µM (active).

In the case of `Cc1nn(-c2cccc3ccccc23)c(O)c1/C=N/c1sc2c(c1C#N)CCC2`, the EC50 [14] is reported as 6.13 µM (active) and the AC50 [15] is reported as 91.8 µM (active).
